Results as given in article PMC9655728, “In Vitro and In Silico Analysis of New n-Butyl and Isobutyl Quinoxaline-7-carboxylate 1,4-di-N-oxide Derivatives against Trypanosoma cruzi as Trypanothione Reductase Inhibitors” (International Journal of Molecular Sciences, 2022).
pKi: −log10 of the molar value.

Key:
Type in all cases: biochemical
[1] = molecular target: T1, trypanothione reductase (TR) (Trypanosoma brucei, UniProt P39051); test: spectrophotometric NADPH consumption ([…] nm) with TS2; Lineweaver-Burk and non-linear regression
T1 construct: gene TPR; recombinant Trypanosoma brucei TR
T1 sequence (P39051 whole entry): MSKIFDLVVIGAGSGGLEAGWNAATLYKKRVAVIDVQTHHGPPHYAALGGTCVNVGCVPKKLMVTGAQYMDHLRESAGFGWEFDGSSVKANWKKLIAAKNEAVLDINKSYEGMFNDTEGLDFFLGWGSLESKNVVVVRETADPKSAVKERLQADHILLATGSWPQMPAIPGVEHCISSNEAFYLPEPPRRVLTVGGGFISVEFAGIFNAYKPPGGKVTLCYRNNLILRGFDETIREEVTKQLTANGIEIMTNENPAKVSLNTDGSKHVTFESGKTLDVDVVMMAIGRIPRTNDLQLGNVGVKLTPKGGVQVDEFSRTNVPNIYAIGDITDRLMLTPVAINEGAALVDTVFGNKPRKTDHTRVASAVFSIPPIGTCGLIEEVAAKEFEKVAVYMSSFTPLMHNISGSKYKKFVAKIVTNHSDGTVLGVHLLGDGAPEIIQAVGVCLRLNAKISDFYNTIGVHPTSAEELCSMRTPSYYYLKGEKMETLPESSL

[2] = molecular target: T2, human glutathione reductase (hGR) (Homo sapiens, UniProt P00390); test: spectrophotometric NADPH consumption ([…] nm) with GSSG; Lineweaver-Burk and non-linear regression
T2 construct: gene GSR; recombinant human glutathione reductase
T2 sequence (P00390 44-522): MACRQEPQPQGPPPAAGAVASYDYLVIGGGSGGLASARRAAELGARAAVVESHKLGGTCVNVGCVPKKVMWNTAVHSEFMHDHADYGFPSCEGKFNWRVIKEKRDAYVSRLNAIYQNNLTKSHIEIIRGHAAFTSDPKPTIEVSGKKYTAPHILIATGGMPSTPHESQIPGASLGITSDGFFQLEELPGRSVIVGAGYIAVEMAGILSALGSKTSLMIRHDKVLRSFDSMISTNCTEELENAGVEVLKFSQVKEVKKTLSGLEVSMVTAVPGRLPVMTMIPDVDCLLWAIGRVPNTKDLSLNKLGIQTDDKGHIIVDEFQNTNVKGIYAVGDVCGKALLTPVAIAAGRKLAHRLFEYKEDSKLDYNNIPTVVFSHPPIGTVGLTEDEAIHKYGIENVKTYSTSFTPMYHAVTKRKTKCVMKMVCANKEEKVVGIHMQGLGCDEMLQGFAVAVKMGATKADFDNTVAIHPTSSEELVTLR

[3] = molecular target: T1, trypanothione reductase (TR); test: spectrophotometric NADPH consumption ([…] nm) with TS2; % inhibition at […] ([…] TS2); conditions: read-out: % Inhibition of TR / 44 μM [TS2]

CCCCOC(=O)c1ccc2c(c1)[n+]([O-])c(C(=O)C(C)(C)C)c(C(F)(F)F)[n+]2[O-] [T-147] was tested, and the pKi [1] was 4.94 and the pKi [2] was 4.60.
CCCCOC(=O)c1ccc2c(c1)[n+]([O-])c(C(=O)c1ccccc1)c(C(F)(F)F)[n+]2[O-] [T-148] was tested, and the inhibition at 20 µM [3] was 36%.
